From patent US8580968B2, “Benzothiazole and benzooxazole derivatives and methods of use” (AbbVie Inc., priority 2007, dated 2013) come the findings set out here.

One data set relates to Male Sprague Dawley rats. As to the kind of experiment: analgesic effect against neuropathic pain (L5/L6 spinal nerve ligation, von Frey mechanical allodynia). It is filed as in vivo, rat. Conditions: intraperitoneal injection. The procedure:
Animals were prepared for testing, by use of a surgical procedure that induces neuropathic pain in one paw. Male Sprague Dawley rats were purchased from Charles River (Portage, Mich.). Prior to surgery, animals were housed in groups and maintained in a temperature-regulated environment. Following nerve ligation surgery, animals were housed in groups, and had access to food and water ad libitum.
The L5 and L6 spinal nerves of anesthetized rats were tightly ligated in a manner described previously (see Kim and Chung, Pain (1992) vol. 50 pp. 355-363). An incision was made on the dorsal portion of the hip and the muscle was blunt-dissected to reveal the spinal processes. […] The paw affected by the surgical procedure (the left paw) develops an allodynic response, a hypersensitivity to mechanical and other stimuli; neuropathic pain is assessed as an increased sensitivity in the surgically affected (left) allodynic paw compared to the control paw on the right side, and measured by comparing the response of the (left side) allodynic paw to the response of the unaffected right side control paw.
For the assessment of neuropathic pain, mechanical allodynia in the affected paw of animals that had undergone spinal nerve ligation was evaluated using testing with von Frey filaments. […]

Data set [1] concerns adult osteoarthritic rats. Nature of the data set: osteoarthritis model (MIA-induced knee joint osteoarthritis, hind limb grip force). The format is in vivo, rat. Conditions: intraperitoneal injection; for effect on hind limb grip force: p<0.01, 20 days after MIA. As to the method: Unilateral knee joint osteoarthritis was induced in rats by a single intra-articular (i.a.) injection of sodium monoiodoacetate (MIA) (Sigma-Aldrich, St. Louis, Mo.) (3 mg in 50 μl sterile isotonic saline) into the right knee joint cavity under light (1-3%) isoflurane anesthesia.
Pain behavior was assessed by measurement of hind limb grip force (GF) in adult osteoarthritic rats. Following the unilateral injection of MIA (male Sprague Dawley, 325-350 g, tested at 20 days following MIA injection), a behavioral measure of activity-induced pain was carried out. Measurements of the peak hind limb grip force were conducted by recording the maximum compressive force (CFmax), in grams of force, exerted on a hind limb strain gauge setup, in a commercially available grip force measurement system (Columbus Instruments, Columbus, Ohio).
During testing, each rat was gently restrained by grasping it around its rib cage and then allowed to grasp the wire mesh frame attached to the strain gauge. The experimenter then moved the animal in a rostral-to-caudal direction until the grip was broken. Each rat was sequentially tested twice at approximately 2-3 min interval to obtain a raw mean grip force (CFmax). This raw mean grip force data was in turn converted to a maximum hindlimb cumulative compressive force (CFmax), as the grams of force/kg of body weight, for each animal.
For evaluating the compound effects, the hind limb grip force was conducted 20 days following the intra-articular injection of MIA. A group of age-matched naïve (not injected with MIA) animals was added as a comparator to the drug-dosed groups. The vehicle control response for each group of MIA-treated animals was defined as the 0% response (0% effect), whereas the naïve control group was defined as the normal response and as 100% effect. The % effects for each dose group was expressed as % return of response to normalcy, compared to the naïve group. That is, the % effect=(Treatment CFmax−Vehicle CFmax)/Vehicle CFmax]×100). All experiments evaluating drug effects in this model were conducted in a randomized blinded fashion. […]

The next data set has as its system mice. Nature of the data set: single trial 24-hour inhibitory avoidance model (memory). It is filed as in vivo, mouse. Conditions: 0.03 mg/kg, intraperitoneal injection, p<0.01 versus vehicle injected control mice. The source says:
The ability of compounds to treat diseases with deficits in memory and cognition such as Alzheimer's disease, dementia, age-related cognitive impairment, schizophrenia, and cognitive deficits of schizophrenia can be assessed in animal models. One model assessing the capability of a compound to enhance memory is the single trial 24-hour inhibitory avoidance model, described in Tietje et al. (Tietje, K. R., et al. “Preclinical Characterization of A-582941: A Novel α7 Neuronal Nicotinic Receptor Agonist with Broad Spectrum Cognition-Enhancing Properties” CNS Neuroscience and Therapeutics 2008 v14 pp. 65-82). In this mouse model, at a dose of 0.03 mg/kg, administered by intraperitoneal injection, the compound of Example 20 ((R)-2-(2-(3-(piperidin-1-yl)pyrrolidin-1-yl)benzo[d]thiazol-6-yl)pyridazin-3(2H)-one) achieved full efficacy, (p<0.01 versus vehicle injected control mice).

On to `O=c1cccnn1-c1ccc2nc(N3CC[C@@H](N4CCCCC4)C3)sc2c1` [Example 20, (R)-2-(2-(3-(piperidin-1-yl)pyrrolidin-1-yl)benzo[d]thiazol-6-yl)pyridazin-3(2H)-one], for which, in the data set on Male Sprague Dawley rats (3 mg/kg, p<0.01), the “reduction in mechanical allodynia” value was 40%. Further, the adverse effects entry (with Male Sprague Dawley rats (neuropathic pain model); in data set [1] (osteoarthritis model)) was “No complicating adverse effects were observed” in each case. Moreover, the “effect on hind limb grip force” value in data set [1] (1 mg/kg) is recorded as 49%; in data set [1] (3 mg/kg), 69%. In the data set on mice, the “efficacy in inhibitory avoidance (memory enhancement)” value is recorded as “full efficacy”.
